Test results as given in paper PMC8779140 (Pharmaceutics, 2022).
Entries after “also recorded” stand apart in the source; their conditions may differ. Where two headings read alike, the source gives them in different places. *1 amine or outer side, *2 acyl side, *3 side chain or, on linkers, in order; H or OH if unused. Where a SMILES comes first, the peptide text is derived from it. Bridges are numbered along the chain shown (N, C = ends). Roman numbers before positions name the chains, in order. [ ]: non-standard residue; d: D form. Actinocin(9to1) = Cc1c2oc3c(C)ccc(C(=O)[*:1])c3nc-2c(C(=O)[*:2])c(N)c1=O; NMeV = CN[C@H](C(=O)O)C(C)C; Sar = CNCC(=O)O

Key:
SARS-CoV-2 PL^pro = target: T1, SARS-CoV-2 PL^pro (Severe acute respiratory syndrome coronavirus 2, UniProt P0DTD1); test: biochemical
T1 construct: The synthetic gene of SARS-CoV-2 PL^pro was cloned into the pET16b vector; made in house; host or cells: E. coli BL21(DE3)

human TMPRSS2 = target: T2, human TMPRSS2 (Homo sapiens, UniProt O15393); test: Inhibition assay of human TMPRSS2 (fluorogenic peptide); type: biochemical
T2 construct: the purified MBP-tagged TMPRSS2 (residues 256-492) activity; made in house; host or cells: E. coli BL21 (DE3)
T2 sequence (O15393 256-492): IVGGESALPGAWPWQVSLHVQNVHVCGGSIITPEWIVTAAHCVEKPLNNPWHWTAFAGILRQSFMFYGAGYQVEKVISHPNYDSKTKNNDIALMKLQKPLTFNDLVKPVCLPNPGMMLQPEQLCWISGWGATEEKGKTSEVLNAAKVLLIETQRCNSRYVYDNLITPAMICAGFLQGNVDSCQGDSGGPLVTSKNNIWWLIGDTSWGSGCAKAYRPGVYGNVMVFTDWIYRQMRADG
Experimental: Cloning of TMPRSS2 was performed as previously reported. The synthetic gene encoding the catalytic domain of human TMPRSS2 (residues 256–492) was cloned into the pMAL-c5X vector (New England Biolabs). This plasmid was transformed into E. coli BL21 (DE3) for protein overexpression. Overnight culture of a single transformant (5 mL) was added to 500 mL of fresh LB medium containing […] ampicillin. The cells were grown to an OD600 of 0.6 and added with 1 mM isopropyl-β-thiogalactopyranoside for further 20 h incubation at 16 °C for recombinant protein production. The cells were harvested by centrifugation at 7000× g for 15 min.
Purification of the maltose-binding protein (MBP)-tagged TMPRSS2 was conducted at 4 °C. The cell paste obtained from the cell culture (1 L) was suspended in a lysis buffer (40 mL) containing 25 mM Tris-HCl (pH 7.5) and 150 mM NaCl. To disrupt the cells, a French press was used. The cell-free extract was loaded onto a 10 mL amylose resin column (New England Biolabs, Ipswich, MA, USA) equilibrated with the lysis buffer. The column was washed with 10 column volumes of lysis buffer, and then the MBP-tagged TMPRSS2 bound to the amylose resin was eluted with the elution buffer (25 mM Tris, pH 7.5, 150 mM NaCl, and 10 mM maltose).
For assaying the inhibition of the purified MBP-tagged TMPRSS2 (residues 256-492) activity, a fluorogenic peptide substrate, Boc-Gln-Ala-Arg-AMC, was used with excitation at 355 nm and emission at 460 nm. The enzyme (0.22 μM) was preincubated in the presence or absence of various concentrations of inhibitors in 20 mM HEPES and pH 7.5 assay buffer for 10 min in black 96-well immuno plates (Thermo Scientific). Next, the fluorescent substrate (10 μM) was added and incubated for 60 min at room temperature. The reactions were monitored by using a fluorescence plate reader (Fluoroskan Ascent, Thermo Labsystems, Franklin, MA, USA). The initial velocities of the inhibited reactions were plotted against the different inhibitor concentrations to yield the IC50 value by fitting with the equation A(I) = A(0) × {1 − [I/(I + IC50)]}. In this equation, A(I) is the enzyme activity with inhibitor concentration I, and A(0) is the enzyme activity without an inhibitor. For each data point, the measurements were repeated thrice to yield the mean and standard deviation.

SARS-CoV-2 3CL^pro = SARS-CoV-2 3CL^pro (Severe acute respiratory syndrome coronavirus 2, UniProt P0DTD1); test: biochemical
SARS-CoV-2 = test: Plaque reduction assay in Vero E6 cells; type: cell-based; conditions: 120 h
Vero E6 cells [1] = test: Cytotoxicity seen in the plaque reduction assay; conditions: Figure 7b, seen at 0.2 μM
[2] = target: spike RBD–ACE2 interaction (wild-type) (Severe acute respiratory syndrome coronavirus 2, UniProt P0DTC2); type: cell-based, SARS-CoV-2; conditions: RBD attachment assay
[3] = cited from earlier work
Vero E6 cells [4] = tested on: Vero E6 cells
[5] = 75 nM PL^pro, 10 μM z-Arg-Leu-Arg-Gly-Gly-AMC, pH 7.5, read-out: IC50
[6] = 0.22 μM MBP-tagged TMPRSS2 (residues 256-492), 10 μM Boc-Gln-Ala-Arg-AMC, read-out: IC50

CN(C)C/C=C/C(=O)Nc1cc2c(Nc3ccc(F)c(Cl)c3)ncnc2cc1O[C@H]1CCOC1 [Afatinib]
IC50 (SARS-CoV-2 PL^pro; [5]): 45.6 ± 4.2 µM
IC50 (human TMPRSS2): 28.4 ± 1.5 µM

Cc1c2oc3c(C)ccc(C(=O)N[C@@H]4C(=O)N[C@H](C(C)C)C(=O)N5CCC[C@H]5C(=O)N(C)CC(=O)N(C)[C@@H](C(C)C)C(=O)O[C@@H]4C)c3nc-2c(C(=O)N[C@@H]2C(=O)N[C@H](C(C)C)C(=O)N3CCC[C@H]3C(=O)N(C)CC(=O)N(C)[C@@H](C(C)C)C(=O)O[C@@H]2C)c(N)c1=O [Dactinomycin] (I: T[dV]P[Sar][NMeV] / II: T[dV]P[Sar][NMeV]; ester I:1-I:C, II:1-II:C; linker I:N-II:N via Actinocin(9to1))
IC50 (SARS-CoV-2 PL^pro; [5]): 14.7 ± 2.6 µM
IC50 (SARS-CoV-2 3CL^pro; 35 nM 3CL^pro, 6 μM fluorogenic substrate, pH 7.0, read-out: IC50): 37.6 ± 2.8 µM

COc1cccc2c1C(=O)c1c(O)c3c(c(O)c1C2=O)C[C@@](O)(C(=O)CO)C[C@@H]3O[C@H]1C[C@H](N)[C@H](O)[C@H](C)O1 [Doxorubicin]
IC50 (SARS-CoV-2 PL^pro): 4.6 ± 0.8 µM
antiviral activity in plaque reduction assay (SARS-CoV-2; 10 μM): did not effectively inhibit the replication and infection of the virus
IC50 (human TMPRSS2; [6]): 8.2 ± 1.6 µM

CCN(CC)CCCC(C)Nc1c2ccc(Cl)cc2nc2ccc(OC)cc12 (centres unmarked) [Mepacrine]
IC50 (SARS-CoV-2 PL^pro): 4.4 ± 0.9 µM
IC50 (human TMPRSS2; [6]): 29.9 ± 3.7 µM

CCOc1cc2ncc(C#N)c(Nc3ccc(OCc4ccccn4)c(Cl)c3)c2cc1NC(=O)/C=C/CN(C)C [Neratinib]
IC50 (SARS-CoV-2 PL^pro; [5]): 11.6 ± 2.9 µM
IC50 (human TMPRSS2; [6]): 25.9 ± 3.2 µM

O=C(Nc1ccc([N+](=O)[O-])cc1Cl)c1cc(Cl)ccc1O [Niclosamide]
IC50 (SARS-CoV-2 PL^pro): 16.6 ± 1.8 µM
IC50 (SARS-CoV-2 3CL^pro): 18.7 ± 0.9 µM
antiviral activity in plaque reduction assay (SARS-CoV-2; 0.2 μM): demonstrated antiviral property
cytotoxicity (Vero E6 cells [1]): cells appeared broken into tiny particles, revealing the cytotoxicity; also recorded: high cytotoxicity

CO[C@H]1C[C@@H]2CC[C@@H](C)[C@@](O)(O2)C(=O)C(=O)N2CCCC[C@H]2C(=O)O[C@H]([C@H](C)C[C@@H]2CC[C@@H](O)[C@H](OC)C2)CC(=O)[C@H](C)/C=C(\C)[C@@H](O)[C@@H](OC)C(=O)[C@H](C)C[C@H](C)/C=C/C=C/C=C/1C [Rapamycin]
IC50 (SARS-CoV-2 PL^pro; [5]): 31 ± 2.4 µM
inhibition of RBD–ACE2 interplay (in words) [2]: could not efficiently inhibit the interplay between the RBD and ACE2
antiviral activity in plaque reduction assay (SARS-CoV-2; 20 μM): did not exert a significant effect on the inhibition of viral infection
inhibition of TMPRSS2 (in words) (human TMPRSS2; IC50 threshold 50 μM): did not inhibit

CC/C(=C(\c1ccccc1)c1ccc(OCCN(C)C)cc1)c1ccccc1 [Tamoxifen]
half-life [3]: 5 to 7 days
cytotoxicity (Vero E6 cells [4]): without apparent cytotoxicity
antiviral activity in plaque reduction assay (SARS-CoV-2; 10 μM): robustly protected cells from the viral infection
IC50 (human TMPRSS2): 21.4 ± 1.6 µM
